Experiments:
[1] = target: AC (Homo sapiens (Human), UniProt Q13510); assay: AC activity in SW403 human colon adenocarcinoma cells; assay type: cell-based
Experimental: (§1) (A) Intact cells were treated with compound of Example 25 (0.1-20 μM) or vehicle and AC activity was measured 3 hours later in cell lysates. (B-E) Intact cells were exposed to compound of Example 25 (0.1-20 μM) for 3 hours and sphingosine/sphinganine (B), dihydroceramides (C), medium chain ceramides (D), long chain ceramides (E) were quantified. Results are expressed as mean±s.e.m. (n=3). *p<0.05, **p<0.01, ***p<0.001 vs vehicle, two-way ANOVA followed by Dunnet.
(§2) (A) Intact cells were treated with compound of Example 25 (20 μM) or vehicle and AC activity was measured 1 to 48 hours later in cell lysates. (B-E) Intact cells were exposed to compound of Example 25 (20 μM) and sphingosine (B), C16:0 dihydroceramide (C), C16:0 ceramide (D) were quantified. Results are expressed as mean±s.e.m. (n=3). *p<0.05, **p<0.01, ***p<0.001 vs vehicle, two-way ANOVA followed by Dunnet.
hAC protein preparation (10 μg) was preincubated with inhibitors (final DMSO concentration 1%) in assay buffer (100 mM sodium phosphate, 0.1% Nonidet P-40, 150 mM NaCl, 3 mM DTT, 100 mM sodium citrate, pH 4.5) for 30 min at 37° C. Reactions were started by the addition of 50 μM N-lauroyl ceramide (Nu-Chek Prep, Elysian, Minn.) and carried on for 30 min at 37° C. Reactions were stopped by addition of a mixture of chloroform/methanol (2:1, vol/vol) containing 1 nmol 11-lauroleic acid (NuChek Prep). The organic phases were collected, dried under nitrogen and analyzed by UPLC/MS (Acquity, Waters). In the negative-ion mode monitoring the reaction product (lauric acid, m/z=199) using 11-lauroleic acid as internal standard. […]
The [M−H]^− ion was monitored in the selected-ion monitoring mode (m/z values: lauric acid 199, 11-lauroleic acid 197.35). […] Inhibition of AC activity was calculated as reduction of lauric acid in the samples compared to vehicle controls. IC50 values were calculated by non-linear regression analysis of log [concentration]/inhibition curves using GraphPad Prism 5 (GraphPad Software Inc., CA—USA) applying a standard slope curve fitting.

[2] = target: COX1 (h) (Homo sapiens (Human), UniProt P23219); assay: Cerep enzyme inhibition screen: COX1; assay type: biochemical; details: mean of two determinations, read-out: Inhibitory activity (% Inh. at 10 μM), mean
Description: (§3) Compound of Example 25 falling in both Formula (I) and (Ia) was selected to be tested for off-target effects on a set of enzymes that include proteases (aspartic, cysteine, and serine), cyclooxygenases as well as lipoxygenases and group IV phospholipase (sPLA2) (Table 3). [table]

[3] = test system: SW403 cells
Description: Combinatory index calculation of cell viability data analyzed with CompuSyn Software. The resulting combination index (CI) offers quantitative definition for additive effect (CI=1), synergism (CI<1), and antagonism (CI>1) in drug combinations. Results are expressed as mean±s.e.m. (n=8-16) of three independent experiments.
Finally, the CellTiter-Glo® Luminescent Cell Viability Assay can be used to determine the number of viable cells in culture based on quantitation of the ATP present, which signals the presence of metabolically active cells. Briefly, a volume of CellTiter-Glo® Reagent equal to the volume of cell culture medium present in each well is added to 96-well plates after drug treatment. Contents are mixed for 2 minutes on an orbital shaker to induce cell lysis and plate was incubated at room temperature for 10 minutes to stabilize signal before reading luminescence.
The compounds were added to the cultures once every 24 hours over a period of 72 hours and the effects of the combined treatments were evaluated using CompuSyn Software.

[4] = test system: SW403 cells; assay: sphingosine and ceramide levels in SW403 cells; assay type: cell-based, human; details: 0.1-20 μM, 3 hours
Experimental: as §1
as §2, with “(n=3). *p<0.05, **p<0.01, ***p<0.001 vs vehicle, two-way ANOVA followed by Dunnet.” left out
Lipids were extracted from mouse tissue lysate with a chloroform/MeOH mixture (2:1 v/v, 3 mL) containing internal standards. […] Ceramides, sphingosine and sphinganine were analyzed by LC-MS/MS, using a Waters Acquity UPLC coupled with a Waters Xevo TQMS and interfaced with ESI. […]
Tissue-derived sphingosine and sphinganine were identified by comparison of their LC retention times and MS^2 fragmentation patterns with those of authentic standards (Avanti Polar Lipids). Extracted ion chromatograms were used to quantify sphingosine ([…], m/z 300.5>282.5) and sphinganine standard (C18:0, m/z 303>285). […]

[5] = target: cathepsin D (h) (Homo sapiens (Human), UniProt P07339); assay: Cerep enzyme inhibition screen: cathepsin D; assay type: biochemical; details: mean of two determinations, read-out: Inhibitory activity (% Inh. at 10 μM), mean
Description: as §3

[6] = target: caspase-3 (h) (Homo sapiens (Human), UniProt P42574); assay: Cerep enzyme inhibition screen: caspase-3; assay type: biochemical; details: mean of two determinations, read-out: Inhibitory activity (% Inh. at 10 μM), mean
Description: as §3

[7] = 20 μM, AC activity and sphingolipid levels

AC, sequence (Q13510 22-142): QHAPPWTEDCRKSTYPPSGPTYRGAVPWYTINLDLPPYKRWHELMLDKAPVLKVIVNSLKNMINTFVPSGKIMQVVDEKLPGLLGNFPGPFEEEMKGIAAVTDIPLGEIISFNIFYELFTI
AC, sequence (Q13510 143-395): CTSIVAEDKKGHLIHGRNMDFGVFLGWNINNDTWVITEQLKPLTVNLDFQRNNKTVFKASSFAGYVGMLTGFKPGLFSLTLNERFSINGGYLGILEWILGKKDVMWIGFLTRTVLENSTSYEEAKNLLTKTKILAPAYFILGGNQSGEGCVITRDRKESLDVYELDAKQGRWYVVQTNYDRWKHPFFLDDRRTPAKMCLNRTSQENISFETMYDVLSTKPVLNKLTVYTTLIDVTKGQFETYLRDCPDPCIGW
COX1 (h), sequence (P23219 24-599): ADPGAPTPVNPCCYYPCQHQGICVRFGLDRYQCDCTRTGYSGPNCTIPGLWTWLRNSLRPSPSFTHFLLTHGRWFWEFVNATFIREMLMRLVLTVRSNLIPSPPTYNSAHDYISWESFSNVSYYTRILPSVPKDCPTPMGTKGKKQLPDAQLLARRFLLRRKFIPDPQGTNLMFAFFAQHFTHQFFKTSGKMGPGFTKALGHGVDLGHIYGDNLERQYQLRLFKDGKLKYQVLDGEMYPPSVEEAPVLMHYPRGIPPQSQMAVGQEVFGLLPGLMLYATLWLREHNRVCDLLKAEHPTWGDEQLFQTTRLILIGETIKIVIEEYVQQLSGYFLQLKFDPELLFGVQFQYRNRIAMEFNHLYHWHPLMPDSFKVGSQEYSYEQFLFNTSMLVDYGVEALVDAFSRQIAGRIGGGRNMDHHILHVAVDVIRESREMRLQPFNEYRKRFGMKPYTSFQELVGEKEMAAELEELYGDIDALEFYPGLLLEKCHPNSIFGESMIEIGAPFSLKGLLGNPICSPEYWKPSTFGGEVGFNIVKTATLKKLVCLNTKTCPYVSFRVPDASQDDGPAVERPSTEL
caspase-3 (h), sequence (P42574 29-175): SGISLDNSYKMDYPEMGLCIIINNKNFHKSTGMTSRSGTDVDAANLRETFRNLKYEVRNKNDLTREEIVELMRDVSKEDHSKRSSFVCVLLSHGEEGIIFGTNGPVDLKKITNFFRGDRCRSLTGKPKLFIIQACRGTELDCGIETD
caspase-3 (h), sequence (P42574 176-277): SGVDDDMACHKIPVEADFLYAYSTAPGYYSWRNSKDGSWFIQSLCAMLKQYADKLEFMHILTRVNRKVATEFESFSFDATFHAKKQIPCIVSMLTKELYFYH
cathepsin D (h), sequence (P07339 65-412): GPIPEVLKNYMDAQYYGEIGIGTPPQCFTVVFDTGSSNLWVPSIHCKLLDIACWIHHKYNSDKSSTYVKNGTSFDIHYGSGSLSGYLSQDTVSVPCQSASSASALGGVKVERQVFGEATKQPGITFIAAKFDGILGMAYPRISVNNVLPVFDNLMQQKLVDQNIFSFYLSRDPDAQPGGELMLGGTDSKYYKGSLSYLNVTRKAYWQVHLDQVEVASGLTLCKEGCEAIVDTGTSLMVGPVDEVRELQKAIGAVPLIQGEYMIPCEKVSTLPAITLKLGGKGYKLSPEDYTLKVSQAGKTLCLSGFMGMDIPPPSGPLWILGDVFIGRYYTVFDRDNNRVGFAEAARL

Structure (SMILES): O=C(NCCCCc1ccccc1)n1c(=O)oc2cc(-c3ccc(F)cc3)ccc21 [Example 25, 6-(4-Fluorophenyl)-2-oxo-N-(4-phenylbutyl)-1,3-benzoxazole-3-carboxamide]
- duration of effects (timecourse) [1, 7]: ≥ 6 h
- onset of significant effects (timecourse) [1, 7]: ≤ 1 h
- AC activity ([1]; 0.1-20 μM, 3 hours): concentration dependent reduction in AC activity
- inhibition at 10 µM [2]: -6.1%
- interaction with 5-FU on SW403 cell viability (combinatory index analysis) [3]: acted synergistically with 5-FU
- di-hydro ceramides and ceramide species levels [4]: intracellular accumulation of various di-hydro ceramides and ceramide species
- sphingosine levels [4]: parallel decrease in sphingosine levels
- inhibition at 10 µM [5]: 67%
- inhibition at 10 µM [6]: 1.9%

Reference: patent US10226452B2, “Benzoxazolone derivatives as acid ceramidase inhibitors, and their use as medicaments” (FONDAZIONE ISTITUTO ITALIANO DI TECNOLOGIA, priority 2014, dated 2019)
